Results published in doi:10.1101/2023.05.30.542953v1 (biorxiv, 2023).

Tested on: LhCE
Assay: UV-Vis Michaelis-Menten hydrolysis assay
Assay type: biochemical, Lactobacillus helveticus
Settings: 50 mM HEPES pH 8, 21 °C, 10 nM enzyme

Km (substrate stock in 5% ethanol) [µM]	Km [µM]	Compound
386 ± 46		CCOC(=O)/C=C/c1ccc(O)c(OC)c1 [ethyl ferulate]
	147 ± 41	O=C(/C=C/c1ccc(O)c(O)c1)O[C@@H]1C[C@](O)(C(=O)O)C[C@@H](O)[C@H]1O [chlorogenic acid]
